In brackets after ≈: the same amount, converted by molar mass.
Experiments:
Assay type in all cases: functional
Settings in all cases: read-out: ED50 (the source's name)
[1] = tested on: A549; assay: Cytotoxicity against human A549 cells
[2] = tested on: SK-MEL-2; assay: Cytotoxicity against human SK-MEL-2 cells
[3] = tested on: SK-OV-3; assay: Cytotoxicity against human SK-OV-3 cells
[4] = tested on: HCT-15; assay: Cytotoxicity against human HCT15 cells
[5] = tested on: XF498; assay: Cytotoxicity against human XF498 cells

Compound | EC50 [1] [µg/mL] | EC50 [2] [µg/mL] | EC50 [3] [µg/mL] | EC50 [4] [µg/mL] | EC50 [5] [µg/mL]
C=CCCCCCCCC#CC#C/C=C\C(C)=O [MONTIPORYINE D] | > 50 | 43.1 (≈ 178 µM) | 45.1 (≈ 186 µM) | > 50 | > 50
CCCCCCCC#CC#CC1=CC(=O)NCCC1 [MONTIPORYINE E] | > 50 | > 50 | > 50 | > 50 | > 50
CCCCCCCC#CC#CC1CC(=O)C=C(C)C1 (stereo not given) [MONTIPORYINE F] | > 50 | 36.7 (≈ 143 µM) | 29.2 (≈ 114 µM) | 45.1 (≈ 176 µM) | 31.3 (≈ 122 µM)
CCCCCCCC#CC#C/C=C/C(C)=O [MONTIPORYNE A] | > 50 | 1.4 (≈ 6.47 µM) | 3.2 (≈ 14.8 µM) | 3.7 (≈ 17.1 µM) | 1.9 (≈ 8.78 µM)
CCCCCCCC#CC#C/C=C\C(C)=O [MONTIPORYNE B] | > 50 | 42.6 (≈ 197 µM) | 25.9 (≈ 120 µM) | > 50 | > 50
C=CCCCCCCCC#CC#C/C=C/C(C)=O [MONTIPORYNE C] | > 50 | 1.5 (≈ 6.19 µM) | 2.5 (≈ 10.3 µM) | 5.2 (≈ 21.5 µM) | 3.2 (≈ 13.2 µM)
